Entries after “also recorded” stand apart in the source; their conditions may differ. Numbered stars: 1 amine (or outer) side, 2 acyl side, 3 side chain; on linkers, the order of the positions; unused ones are H or OH. Bridge positions count the residues as written; N and C are the ends. Peptide text beside a SMILES is read from it. X1 = Nc1nc(CC[*:1])cc(CC[*:2])n1
Tests used:
[1] = biological target: monomeric version of RAD51 (HumRadA22) (Pyrococcus furiosus, UniProt O74036); experiment: Fluorescence polarisation (FP) competition assay: displacement of fluorescein-labelled BRC4 repeat; assay type: binding, archaeal RadA mutant with human Rad51 surface residues; conditions: read-out: FP competition KD, nM, Stapled; stapled product (linker DVT or DVP as in Table 1); 100 nM HumRadA22, 10 nM BRC4-fluorescein; 20 mM CHES pH 9.5, 150 mM NaCl, 0.1% BSA, 0.1% Tween-20; KD calculated from IC50; single titration, three technical replicates per point
Text: We prepared all stapled peptides from small-scale bacterial cultures as GB1/C-His8 fusions and cyclised them with the DVT linker. For peptides SP10, SP11, SP12 and SP15, correct stapling was confirmed by MS, showing a similar composition to SP2 (Fig. S15–S18 ^†). Thus, we confirm that the pseudo-dilution approach is robust in yielding almost exclusively the cyclised product, irrespective of whether a helical or non-helical motif is being constrained. To examine the effect of introducing a covalent staple on affinity, a mock reaction was done in parallel for each peptide by splitting the IMAC elution into two halves and adding DMSO to the mock control instead of the linker. TCEP (500 μM) was included in the mock reaction to maintain the peptide in linear form by preventing disulfide formation. The peptides were tested in a fluorescence polarisation (FP) assay monitoring the displacement of a fluorescently-labelled BRC4 repeat from a monomeric version of RAD51 (HumRadA22), as reported previously.[25] […]
Fluorescence polarisation competition assay
FP competition assay was a modified version of a protocol described previously. Fluorescein-labelled HsBRC4 probe for this assay was kindly provided by Dr Laurens Lindenburg (Hollfelder group, Department of Biochemistry, University of Cambridge). Black 384-well flat-bottom microplates (Corning, 3821) were used with a 40 μl final reaction volume in all measurements. Following buffer conditions were used: 20 mM CHES pH 9.5, 150 mM NaCl, 0.1% BSA, 0.1% Tween-20. Each reaction contained 100 nM HumRadA22 and 10 nM BRC4-fluorescein. Two-fold serial dilutions of stapled peptides were added to the reactions. A free probe control reaction containing only 10 nM BRC4-fluorescein was used to calibrate gain and focal height. FP measurements were performed on Pherastar FX or Clariostar Plus (BMG Labtech) plate readers equipped with an FP 485-520-520 optic modules. Binding curves were fitted using the four-parameter logistic model with a variable Hill slope using Prism software (Graphpad). Regression fitting was performed using the least squares optimisation algorithm.
KD values were estimated from the fitted IC 50 parameters using a previously reported

RAD51 foci in U2OS cells = experiment: Immunofluorescence of IR-induced RAD51 foci formation; assay type: cell-based, human; conditions: 40 μM peptide for 1 hour, then 3 Gy IR or no radiation, 3 hours recovery, five independent experiments
Method: We monitored the ability of SP30 and SP31 to disrupt IR-induced RAD51 foci formation using IF. Cells were pre-incubated with the peptides or with vehicle (control), after which they were either treated with no radiation or with 3 Gy IR and imaged after a 3 hours recovery. We observed RAD51 foci in the absence of peptide and IR treatment, which likely reflects recombination events associated with the basal replicative stress of U2OS cells (Fig. 5 and S4 ^†). As expected, IR treatment of control cells leads to an apparent increase in the number of RAD51 foci (Fig. 5 and S4 ^†). […] We also tested whether a linear version of SP31 (L31) also affects IR-induced and baseline foci counts in five independent experiments (Fig. S5 and S6 ^†). […] It is possible that in some of the experiments the unstapled cysteines of L31 formed a disulfide bridge in the oxidising environment of cell culture, which protected it against proteolytic degradation, similarly to chemical stapling.
(A) Representative immunofluorescence images of U2OS cells incubated with SP30 (40 μM, SP30), SP31 (40 μM, SP31) or vehicle alone (control) for 1 hour, after which they were treated with 3 Gy ionising radiation (3 Gy 3 h) or no radiation (noIR) and allowed to recover for 3 hours. Cells were stained with α-RAD51 and Hoechst 33342 as indicated. Scale bar is 10 μm. […]

SMILES | Kd [1] [nM] | Effect on number of RAD51 foci (RAD51 foci in U2OS cells)
CC(C)C[C@@H]1NC(=O)[C@H](CCCCN)NC(=O)[C@H](CCCCN)NC(=O)CNC(=O)[C@H](CO)NC(=O)[C@H](C)NC(=O)[C@H]([C@@H](C)O)NC(=O)[C@H](CO)NC(=O)[C@H](Cc2ccccc2)NC(=O)CNC(=O)[C@H](CO)NC(=O)[C@@H](NC(=O)CN)CSCCc2cc(nc(N)n2)CCSC[C@@H](C(=O)N[C@@H](CCC(N)=O)C(=O)N[C@@H](CCCCN)C(=O)N[C@@H](C)C(=O)N[C@H](C(=O)N[C@@H](CCCCN)C(=O)N[C@@H](CC(C)C)C(=O)N[C@@H](Cc2ccccc2)C(=O)N[C@@H](CO)C(=O)NCC(=O)O)C(C)C)NC(=O)[C@H](C)NC(=O)[C@H](CCC(N)=O)NC(=O)[C@H]([C@@H](C)O)NC(=O)[C@H](CO)NC(=O)[C@H](C(C)C)NC(=O)[C@H](CC(N)=O)NC1=O [SP30] (H-GCSGFSTASGKKLNVSTQACQKAVKLFSG-OH; linker 2-20 via X1) | 13 | but not SP30, significantly reduces the number of RAD51 foci
CC(C)C[C@@H]1NC(=O)[C@H](CCCCN)NC(=O)[C@H](CCCCN)NC(=O)CNC(=O)[C@H](CO)NC(=O)[C@H](C)NC(=O)[C@H]([C@@H](C)O)NC(=O)[C@H](CO)NC(=O)[C@H](Cc2ccccc2)NC(=O)CNC(=O)[C@H](CO)NC(=O)[C@@H](NC(=O)CNC(=O)CNC(=O)[C@H](CCCNC(=N)N)NC(=O)[C@H](CCCNC(=N)N)NC(=O)[C@H](CCCNC(=N)N)NC(=O)[C@H](CCCNC(=N)N)NC(=O)[C@H](CCCNC(=N)N)NC(=O)[C@H](CCCNC(=N)N)NC(=O)[C@H](CCCNC(=N)N)NC(=O)[C@H](CCCNC(=N)N)NC(=O)[C@H](CCCNC(=N)N)NC(=O)CN)CSCCc2cc(nc(N)n2)CCSC[C@@H](C(=O)N[C@@H](CCC(N)=O)C(=O)N[C@@H](CCCCN)C(=O)N[C@@H](C)C(=O)N[C@H](C(=O)N[C@@H](CCCCN)C(=O)N[C@@H](CC(C)C)C(=O)N[C@@H](Cc2ccccc2)C(=O)N[C@@H](CO)C(=O)NCC(=O)O)C(C)C)NC(=O)[C@H](C)NC(=O)[C@H](CCC(N)=O)NC(=O)[C@H]([C@@H](C)O)NC(=O)[C@H](CO)NC(=O)[C@H](C(C)C)NC(=O)[C@H](CC(N)=O)NC1=O [SP31] (H-GRRRRRRRRRGGCSGFSTASGKKLNVSTQACQKAVKLFSG-OH; linker 13-31 via X1) | 14 | significantly reduces the number of RAD51 foci in both IR-treated and untreated cells; also recorded: disrupts RAD51 foci formation
